Literature values, collected in patent US20080188457A1, “Modulation of Neurogenesis with Biguanides and GSK3-beta Agents” (BrainCells, Inc., priority 2007, published 2008).

Key:
[1] = system: Group I or Group III receptors; settings: at sub-mM concentrations
mGluR3 = mGluR3 (Homo sapiens, UniProt Q14832)
mGluR2 = mGluR2 (Homo sapiens, UniProt Q14416)
[2] = system: KA, AMPA, and NMDA iGlu receptors
human mGlu2 receptor = human mGlu2 receptor (Homo sapiens, UniProt Q14416); settings: in vitro; low nanomolar range
human mGlu3 receptor = human mGlu3 receptor (Homo sapiens, UniProt Q14832); settings: in vitro; low nanomolar range
gluconeogenesis = settings: person with type 2 diabetes

Sequence of mGluR3 (Q14832 23-879): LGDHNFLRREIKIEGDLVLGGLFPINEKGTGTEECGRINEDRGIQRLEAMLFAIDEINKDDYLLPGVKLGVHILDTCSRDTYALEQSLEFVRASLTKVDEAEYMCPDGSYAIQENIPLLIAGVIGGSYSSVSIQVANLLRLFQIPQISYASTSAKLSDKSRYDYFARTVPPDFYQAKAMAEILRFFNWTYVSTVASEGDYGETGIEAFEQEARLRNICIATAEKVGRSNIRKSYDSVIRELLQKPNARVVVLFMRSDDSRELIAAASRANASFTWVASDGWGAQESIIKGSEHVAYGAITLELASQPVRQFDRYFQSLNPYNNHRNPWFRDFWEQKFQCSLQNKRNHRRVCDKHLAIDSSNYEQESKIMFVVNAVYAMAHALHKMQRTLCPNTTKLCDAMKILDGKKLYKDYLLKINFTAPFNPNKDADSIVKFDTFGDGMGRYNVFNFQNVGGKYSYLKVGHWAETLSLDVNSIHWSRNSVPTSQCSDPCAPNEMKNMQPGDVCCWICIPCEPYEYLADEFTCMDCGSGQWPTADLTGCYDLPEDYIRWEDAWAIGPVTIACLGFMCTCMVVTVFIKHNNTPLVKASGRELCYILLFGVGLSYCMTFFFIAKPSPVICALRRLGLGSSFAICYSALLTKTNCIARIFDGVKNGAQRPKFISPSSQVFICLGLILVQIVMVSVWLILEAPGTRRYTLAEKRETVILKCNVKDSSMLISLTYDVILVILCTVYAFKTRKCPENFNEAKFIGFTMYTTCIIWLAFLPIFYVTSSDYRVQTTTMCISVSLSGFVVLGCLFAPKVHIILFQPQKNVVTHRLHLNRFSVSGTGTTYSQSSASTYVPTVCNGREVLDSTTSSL
Sequence of human mGlu3 receptor (Q14832 23-879): as above
Sequence of mGluR2 (Q14416 19-872): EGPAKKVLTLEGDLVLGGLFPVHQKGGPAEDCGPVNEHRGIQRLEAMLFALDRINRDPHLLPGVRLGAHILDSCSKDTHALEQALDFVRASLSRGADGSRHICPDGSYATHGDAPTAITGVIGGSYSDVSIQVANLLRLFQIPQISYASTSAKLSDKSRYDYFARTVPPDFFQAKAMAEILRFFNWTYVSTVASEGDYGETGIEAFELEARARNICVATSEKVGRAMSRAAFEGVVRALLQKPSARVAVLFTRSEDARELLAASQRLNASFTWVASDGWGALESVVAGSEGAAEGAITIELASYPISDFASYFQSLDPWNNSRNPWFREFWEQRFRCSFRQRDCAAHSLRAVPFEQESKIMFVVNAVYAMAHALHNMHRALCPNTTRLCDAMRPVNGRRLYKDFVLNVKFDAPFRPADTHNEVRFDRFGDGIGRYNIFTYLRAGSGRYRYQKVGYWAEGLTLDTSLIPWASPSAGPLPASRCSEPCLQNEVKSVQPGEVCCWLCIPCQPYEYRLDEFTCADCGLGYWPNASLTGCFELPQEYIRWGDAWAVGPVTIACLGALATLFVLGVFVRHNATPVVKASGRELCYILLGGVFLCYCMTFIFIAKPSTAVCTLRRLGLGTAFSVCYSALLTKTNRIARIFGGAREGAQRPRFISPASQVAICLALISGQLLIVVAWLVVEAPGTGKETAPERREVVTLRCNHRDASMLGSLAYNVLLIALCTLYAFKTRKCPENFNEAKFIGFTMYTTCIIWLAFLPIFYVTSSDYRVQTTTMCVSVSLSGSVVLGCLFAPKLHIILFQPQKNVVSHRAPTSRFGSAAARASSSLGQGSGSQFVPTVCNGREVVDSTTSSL
Sequence of human mGlu2 receptor (Q14416 19-872): as above

NC1(C(=O)O)CCc2cc(P(=O)(O)O)ccc21 (racemic) [APICA, (RS)-1-amino-5-phosphonoindan-1-carboxylic acid]
activity against Group I or Group III receptors [1]: no appreciable activity
IC50 (mGluR3): ~30 µM
IC50 (mGluR2): ~30 µM

N[C@](CC1c2ccccc2Oc2ccccc21)(C(=O)O)[C@H]1C[C@@H]1C(=O)O [LY341495, (2S)-2-amino-2-(1S,2S-2-carboxycycloprop-1-yl)-3-(xanth-9-yl) propanoic acid]
activity against KA, AMPA, and NMDA iGlu receptors [2]: substantially inactive

N[C@@]1(C(=O)O)CO[C@H]2[C@H](C(=O)O)[C@H]21 [LY379268, (−)-2-Oxa-4-aminobicyclohexane-4,6-dicarboxylic acid]
EC50 (human mGlu2 receptor): < 10 nM
EC50 (human mGlu3 receptor): < 10 nM

CN(C)C(=N)NC(=N)N [metformin, 1,1-Dimethylbiguanide]
reduction of the rate of gluconeogenesis (gluconeogenesis): over one third
